From ChEMBL document CHEMBL1201862, “PubChem BioAssay data set” (2004) come the findings set out here.

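1) Cells in 96-well plates. 2) Compound, 48 h, 5 concentrations. 3) Linear interpolation between surrounding doses. 4) Unreached endpoint = highest concentration. GI50 = concentration required for 50% inhibition of growth.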 Active and inactive are the calls of the source. Rule as the data show it: active = GI50 up to about 1.1 µM and inactive = higher.

What all share (experiment): inhibition of tumour cell growth, NCI panel, 48 h
In test [1] the test system is SR.
The subject of test [2] is SNB-78.
The subject of test [3] is SK-MEL-5.
Test [4] concerns Malme-3M.
Test [5] has as its system LOX IMVI.
For test [6], the system named is A498.
For test [7], the system named is HCT-116.
Test [8] deals with CCRF-CEM.
Test [9] has as its system OVCAR-4.
The subject of test [10] is SNB-19.
The test system of test [11] is CAKI-1.
In test [12] the test system is UO-31.
Test [13] has as its system IGROV-1.
Test [14] deals with SW-620.
Test [15] concerns HCC 2998.
In test [16] the test system is MCF7.
Test [17] concerns DU-145.
In test [18] the test system is MDA-MB-435.
The test system of test [19] is MDA-MB-231.
Test [20] concerns Hs-578T.

For `Cc1cc2occ(-c3ccc(Cl)cc3)c2c(=O)o1`, the GI50 in test [1] is 38.1 µM (inactive); in test [2], > 100 µM (inactive); in [3], > 100 µM (inactive); in test [4], > 100 µM (inactive); in [5], 72.8 µM (inactive); in [6] it was > 100 µM (inactive). The GI50 in [7] is > 100 µM (inactive); in test [8] it was > 100 µM (inactive); in [9], > 100 µM (inactive); in test [10], > 100 µM (inactive); in test [11], 98.6 µM (inactive); in test [12], 58.1 µM (inactive). Besides, the GI50 in test [13] and in test [14] was > 100 µM (inactive) in each case.

As to `O=C(Nc1nc2ncn(CCI)c2c(=O)[nH]1)c1ccccc1`, the GI50 in [1] was > 100 µM (inactive); in test [2] it was > 56.1 µM (inactive); in test [3], > 100 µM (inactive); in [4] it was > 100 µM (inactive); in test [5], > 100 µM (inactive); in test [6] it was 16 µM (inactive). The GI50 is > 100 µM (inactive) in test [7]; > 100 µM (inactive) in test [8]; > 100 µM (inactive) in test [9]; 41.9 µM (inactive) in [10]; > 100 µM (inactive) in test [11]; > 90.4 µM (inactive) in test [12]. Besides, the GI50 in [13], in [14] and in test [15] was > 100 µM (inactive) throughout.

Consider `Cc1c(-c2coc(-c3ccc(Cl)cc3)n2)c(=O)n(-c2ccccc2)n1C`, for which the GI50 in test [1], in [2], in [3], in test [4], in test [5] and in test [6] was > 100 µM (inactive) in each case. Further, the GI50 in test [7] is > 100 µM (inactive); in [8], > 100 µM (inactive); in test [9], > 100 µM (inactive); in test [12], > 100 µM (inactive); in [13], > 100 µM (inactive); in [15] it was 9.4 µM (inactive).

Turning to `COc1cc2c(c(O)c1C)C(=O)C(Cl)=CC2=O`, the GI50 is 0.662 µM (active) in test [1]; 12.8 µM (inactive) in test [2]; 8.69 µM (inactive) in [3]; 4.21 µM (inactive) in test [4]; 9.53 µM (inactive) in test [5]; 19 µM (inactive) in [6]. For the same molecule, the GI50 in [16] is 6.85 µM (inactive); in test [7] it was 8.28 µM (inactive); in test [8], 0.918 µM (active); in [9], 11.8 µM (inactive); in [10], 42.3 µM (inactive); in test [17] it was 6.46 µM (inactive). In addition, the GI50 in test [18] was 7.46 µM (inactive); in test [11], 5.45 µM (inactive); in test [12], 10.4 µM (inactive); in [13], 20.4 µM (inactive); in test [19], 12 µM (inactive); in [14] it was 3.06 µM (inactive). Moreover, the GI50 is 22.3 µM (inactive) in [15] and 30.5 µM (inactive) in [20].

For the molecule `CCCCc1c2c(nc3c1CCc1cc(C=O)c(N)nc1-3)/C(=C/c1ccccc1)CCC2`, the GI50 in test [1] is 58.5 µM (inactive); in [2] it was > 100 µM (inactive); in test [3], > 100 µM (inactive); in test [4], > 100 µM (inactive); in test [5] it was > 100 µM (inactive); in test [6] it was 19.9 µM (inactive). For the same molecule, the GI50 in [7], in test [8], in [9], in [10], in test [11] and in [12] was > 100 µM (inactive) each time. For the same molecule, the GI50 in [13] is > 100 µM (inactive); in [14] it was > 100 µM (inactive); in test [15], 29.9 µM (inactive).

Consider `CC(=O)OC12C(C)=C(C)C(=O)N1c1ccccc1N2C(C)=O` (configuration not stated), for which the GI50 in test [1], in [2], in test [3], in test [5], in test [7] and in [8] was > 100 µM (inactive) in each case. The GI50 in test [9], in test [10], in test [11], in test [12], in test [13] and in test [14] was > 100 µM (inactive) each time. In addition, the GI50 in [15] is > 100 µM (inactive).

As for `CCN(CCCl)CCCNc1c2ccccc2nc2ccc(OC)cc12`, the GI50 in test [1] was 0.0158 µM (active); in [2] it was 0.357 µM (active); in [3] it was 0.388 µM (active); in test [4], 0.603 µM (active); in [5], 0.129 µM (active); in test [6], 1.19 µM (inactive). In addition, the GI50 in test [7] is 0.0585 µM (active); in [8] it was 0.0993 µM (active); in [9], 0.682 µM (active); in [10], 1.05 µM (active); in [11], 0.0959 µM (active); in test [12], 1.29 µM (inactive). The GI50 in test [13] was 0.102 µM (active); in test [14], 0.0371 µM (active); in test [15], 0.535 µM (active).

Turning to `CC1OC(CC2C=CCc3c(O)c4c(c(O)c32)C(=O)c2ccccc2C4=O)CC(NC(=O)C(F)(F)F)C1O` (configuration not stated), the GI50 was 3.7 µM (inactive) in test [1]; 4.18 µM (inactive) in test [2]; 11.2 µM (inactive) in test [3]; 3.12 µM (inactive) in test [4]; 6.73 µM (inactive) in test [5]; 4.69 µM (inactive) in test [6]. In addition, the GI50 in test [7] was 3.13 µM (inactive); in [8], 5.11 µM (inactive); in [9] it was 2.79 µM (inactive); in test [10], 4.86 µM (inactive); in test [11], 7.55 µM (inactive); in test [12], 20 µM (inactive). Also, the GI50 in test [13] was 18.9 µM (inactive); in test [14], 14.3 µM (inactive); in [15] it was 29.4 µM (inactive).

In the case of `CCC12C=CCN3CCC4(C(=C(C(=O)OC)[C@@H]1O)Nc1ccccc14)C32` (some centres not stated), the GI50 in [1] was 1.78 µM (inactive); in test [2] it was 2.8 µM (inactive); in [3], 1.79 µM (inactive); in test [4], 1.74 µM (inactive); in [5], 1.64 µM (inactive); in test [6] it was 1.96 µM (inactive). The GI50 in [7] is 1.57 µM (inactive); in [8], 1.76 µM (inactive); in test [9] it was 2.12 µM (inactive); in test [10], 1.91 µM (inactive); in test [11] it was 2.29 µM (inactive); in test [12], 2.4 µM (inactive). In addition, the GI50 in test [13] is 1.83 µM (inactive); in test [14] it was 1.72 µM (inactive); in test [15] it was 1.63 µM (inactive).

As for `CC(=O)OCSc1ncnc2c1ncn2CN1CCOCC1`, the GI50 in [1] is 6.14 µM (inactive); in [2], > 100 µM (inactive); in test [3], 49.4 µM (inactive); in test [4] it was 24.9 µM (inactive); in test [5], 2.03 µM (inactive); in test [6] it was > 100 µM (inactive). Also, the GI50 is 14.4 µM (inactive) in test [7]; 1.98 µM (inactive) in test [8]; 23 µM (inactive) in test [9]; > 100 µM (inactive) in [10]; 6.37 µM (inactive) in test [11]; 8.38 µM (inactive) in [12]. Besides, the figures for the GI50 in [13], in test [14] and in test [15] were 52.5 µM (inactive), 28.8 µM (inactive) and 6.46 µM (inactive), respectively.

`CCOC(=O)NC/C=C/CO`: the GI50 in test [1], in test [2], in [3], in [4], in test [6] and in test [7] was > 100 µM (inactive) in each case. Moreover, the GI50 in [8], in [9], in [10], in test [11], in test [12] and in test [13] was > 100 µM (inactive) in each case. The GI50 in test [14] and in [15] was > 100 µM (inactive) in each case.

In the case of `Oc1cc2c(cc1O)-c1[nH]ncc1CC2`, the GI50 in test [1] was 27.8 µM (inactive); in [2] it was 80.4 µM (inactive); in test [3], 35.1 µM (inactive); in test [4], 59.8 µM (inactive); in test [5] it was 33.5 µM (inactive); in [6], 25.4 µM (inactive). Besides, the GI50 in [7] is 51.1 µM (inactive); in [8] it was 11.4 µM (inactive); in test [10] it was 46.8 µM (inactive); in test [11] it was 33.6 µM (inactive); in test [12] it was 18.4 µM (inactive); in [13], 31.6 µM (inactive). For the same molecule, the GI50 in test [14] was 35.4 µM (inactive); in test [15] it was 22.4 µM (inactive).

In the case of `COc1ccc(OC)c(/C=N/N=C(\N)NO)c1`, the GI50 in test [1] is 45.2 µM (inactive); in [2], 82.6 µM (inactive); in test [4] it was 36.8 µM (inactive); in test [5], 2.84 µM (inactive); in test [6] it was > 10 µM (inactive); in [7] it was 24.5 µM (inactive). Moreover, the GI50 is 16.6 µM (inactive) in test [8]; 7.28 µM (inactive) in test [9]; 88.7 µM (inactive) in [10]; 8.04 µM (inactive) in test [11]; 14.2 µM (inactive) in [12]; 29.6 µM (inactive) in [13]. For the same molecule, the GI50 in test [14] is 24.3 µM (inactive).

With `CC(=O)OC1CCC2C(=CCC3C2(C)C(=O)CC2(C)C(C4(C)OC(C(C)C)=CC4=O)C(O)CC32C)C1(C)C` (configuration not stated), the GI50 was 28.4 µM (inactive) in [1]; 78.3 µM (inactive) in test [2]; 23.5 µM (inactive) in [3]; 21.5 µM (inactive) in test [4]; > 100 µM (inactive) in test [6]; > 10 µM (inactive) in test [7]. In addition, the GI50 in test [8] was 31 µM (inactive); in test [10], > 100 µM (inactive); in [11], 45 µM (inactive); in test [12] it was 40.3 µM (inactive); in test [13], 62.4 µM (inactive); in test [14] it was 41 µM (inactive).
